The supplement of paper PMC6045584

What was measured:
Experiment in all cases: area under dose-response curve of surviving fraction (unscaled, Aref=0) (surviving fraction x log10(nM)); higher = more resistant
Conditions in all cases: exposure time: 5 days; dose range 0.5-1000 nM
MK-1775 = compound: C=CCn1c(=O)c2cnc(Nc3ccc(N4CCN(C)CC4)cc3)nc2n1-c1cccc(C(C)(C)O)n1 [MK-1775]
How it was run: (§1)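 Tumour cell lines in 384-well plates were exposed for five days to eight inhibitor concentrations from 0.5 to 1000 nM. Viability was read by CellTiter-Glo luminescence, normalised to DMSO-only wells, in three screens per line. Dose-response survival curves were fitted to surviving fractions by 3-parameter logistic regression in the drc R package. Area under the curve is the unscaled activity area (Aref = 0) over log10 dose.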

AFIMOXIFENE = compound: CC/C(=C(\c1ccc(O)cc1)c1ccc(OCCN(C)C)cc1)c1ccccc1 [AFIMOXIFENE]
How it was run: as §1

[1] = compound: CCc1cc(Nc2nccc(-c3c(-c4ccc(OC)c(C(=O)Nc5c(F)cccc5F)c4)nc4ccccn34)n2)c(OC)cc1N1CCC(N2CCN(S(C)(=O)=O)CC2)CC1
How it was run: as §1

CABOZANTINIB = compound: COc1cc2nccc(Oc3ccc(NC(=O)C4(C(=O)Nc5ccc(F)cc5)CC4)cc3)c2cc1OC [CABOZANTINIB]
How it was run: as §1

[2] = compound: COc1ccc(-c2cc3c(C)nc(N)nc3n([C@H]3CC[C@H](OCCO)CC3)c2=O)cn1
How it was run: as §1

[3] = compound: C[C@H](CN(C)C)Oc1nc(Nc2cc3cccc(Cl)c3cn2)cnc1C#N
How it was run: as §1

BLEOMYCIN = compound: Cc1c(N)nc([C@H](CC(N)=O)NC[C@H](N)C(N)=O)nc1C(=O)N[C@H](C(=O)N[C@H](C)[C@@H](O)[C@H](C)C(=O)N[C@H](C(=O)NCCc1nc(-c2nc(C(=O)NCCC[S+](C)C)cs2)cs1)[C@@H](C)O)[C@@H](OC1OC(CO)C(O)C(O)C1OC1OC(CO)C(O)C(OC(N)=O)C1O)c1cnc[nH]1 [BLEOMYCIN]
How it was run: as §1

IMATINIB = compound: Cc1ccc(NC(=O)c2ccc(CN3CCN(C)CC3)cc2)cc1Nc1nccc(-c2cccnc2)n1 [IMATINIB]
How it was run: as §1

NILOTINIB = compound: Cc1cn(-c2cc(NC(=O)c3ccc(C)c(Nc4nccc(-c5cccnc5)n4)c3)cc(C(F)(F)F)c2)cn1 [NILOTINIB]
How it was run: as §1

BEZ-235 = compound: Cn1c(=O)n(-c2ccc(C(C)(C)C#N)cc2)c2c3cc(-c4cnc5ccccc5c4)ccc3ncc21 [BEZ-235]
How it was run: as §1

BMN-673 = compound: Cn1ncnc1[C@H]1c2n[nH]c(=O)c3cc(F)cc(c23)N[C@@H]1c1ccc(F)cc1 [BMN-673]
How it was run: as §1

VORINOSTAT = compound: O=C(CCCCCCC(=O)Nc1ccccc1)NO [VORINOSTAT]
How it was run: as §1

Test System: HS57T LUNG
- area under dose-response curve (MK-1775): 2.19
- area under dose-response curve (AFIMOXIFENE): 3.68
- area under dose-response curve [1]: 3.36
- area under dose-response curve (CABOZANTINIB): 3.09
- area under dose-response curve [2]: 2.21
- area under dose-response curve [3]: 2.65
- area under dose-response curve (BLEOMYCIN): 2.57
- area under dose-response curve (IMATINIB): 3.57
- area under dose-response curve (NILOTINIB): 3.38
- area under dose-response curve (BEZ-235): 1.94
- area under dose-response curve (BMN-673): 2.92
- area under dose-response curve (VORINOSTAT): 3.16
